In brackets after ≈: the same amount, converted by molar mass.
Assays:
physchem [1] = format: physicochemical; conditions: 25 °C, thermodynamic from solid
Procedure: A known weight of capsaicin drug substance was weighed into a 4 ml Wheaton vial. A known volume of solvent was added and the sample placed in an ultrasonic bath for a minimum of 5 minutes. The temperature of the water bath was kept <25° C. at all times. Samples were transferred to a shaker bath at 25° C./60% RH and left for a minimum of 5 days. The samples were inspected and samples showing saturation (excess solid material remaining) removed for analysis. An additional known weight of capsaicin was added to the remaining samples and they were returned to the shaker bath. This was repeated until all samples had reached saturation.
Samples were filtered through a 0.45 μm PVDF Millipore Millex-HV hydrophilic disposable filter into a clean Wheaton vial. Sample absorbance was determined at 280 nm using 2 mm matched cuvettes. Samples were read against their equivalent solvent blank. Where necessary samples were diluted with methanol and these samples read against a methanol blank.
The concentration of each solution was determined by comparison with the absorbance of a capsaicin reference standard solution of known concentration.
Tween 80 results were very promising therefore the two materials were combined to investigate any possible synergistic effect on capsaicin solubility. […]

physchem [2] = format: physicochemical; conditions: for solubility at 7 days: 2 °C; for solubility at 7 days / solubility at 4 days: thermodynamic from solid; for solubility at 4 days: 25 °C; for Indicative solubility of capsaicin, Concentration mg/ml: 4 days
Procedure: The solubility of capsaicin was determined for the following vehicles by adding an excess of capsaicin and determining the saturation solubility by UV analysis of the supernatant.
Aliquots of 5 ml of each vehicle were dispensed into vials in duplicate and excess capsaicin added equivalent to 5 mg/ml. A small magnetic stirrer bar was introduced into vials containing the gel vehicle and mixed for approximately 5 minutes to disperse the capsaicin. All vials were sonicated for a total of 20 minutes maintaining the temperature below 25° C. The vials were stirred for a further hour.
One vial from each formulation was placed at 25° C./60% RH and one vial from each formulation was placed on a shaker at 2-8° C.
Vials were removed from 25° C./60% RH after storage for 4 days. Vials stored at 2-8° C. were removed from the shaker after storage for 4 days and returned to 2-8° C. to equilibrate further before being removed after storage for a total of 7 days.
A reference solution containing capsaicin 0.06 mg/ml in methanol was prepared. Samples were centrifuged for 20 minutes at 15000 rpm. The resultant supernatant from each vial was carefully transferred to fresh vials. The supernatant from each sample was diluted 1 in 50 with methanol and analyzed by UV at 280 nm using matched quartz cuvettes versus a methanol blank.

[3] = fold more potent than capsaicin; cited from earlier work
[4] = pH 5.5, aqueous with cosolvent or surfactant or cyclodextrin, Indicative solubility of capsaicin, Concentration mg/ml
[5] = pH 7, aqueous with cosolvent or surfactant or cyclodextrin, Indicative solubility of capsaicin, Concentration mg/ml

Row | solubility (physchem [1]; aqueous with cosolvent or surfactant or cyclodextrin, increase of capsaicin solubility for each 1% increase in Tween 80) | solubility (physchem [1]; organic solvent or mixture, Capsaicin Solubility (mg/ml)) | solubility at 7 days (physchem [2]; [4]) | solubility at 7 days (physchem [2]; [5]) | solubility at 4 days (physchem [2]; aqueous with cosolvent or surfactant or cyclodextrin, solubility of capsaicin gel formulations) | solubility at 4 days (physchem [2]; [4]) | solubility at 4 days (physchem [2]; [5]) | solubility at 4 days (physchem [2]; pH 7, aqueous with cosolvent or surfactant or cyclodextrin, capsaicin solubility in isotonic gel vehicles) | Indicative solubility of capsaicin, Concentration mg/ml (physchem [2]; pH 5.5) | Indicative solubility of capsaicin, Concentration mg/ml (physchem [2]; pH 7) | capsaicin concentration in gel formulations (physchem [2]; gel formulations stored at 2-8° C.) | SMILES | potency relative to capsaicin [3]
1 | ~1000 µg/mL | 160000 µg/mL | 2200 µg/mL (≈ 7.2 mM) | 2000 µg/mL (≈ 6.55 mM) | 2000 µg/mL (≈ 6.55 mM) | 2200 µg/mL (≈ 7.2 mM) | 2100 µg/mL (≈ 6.88 mM) | ~2000 µg/mL (≈ 6.55 mM) | 2.1 mg/mL | 1.9 mg/mL | 2 mg/mL | COc1cc(CNC(=O)CCCC/C=C/C(C)C)ccc1O [Capsaicin, N-(4-hydroxy-3-methoxybenzyl)-8-methylnon-trans-6-enamide] | –
2 | – | – | – | – | – | – | – | – | – | – | – | C=C(C)[C@]12C[C@@H](C)[C@@]34O[C@](Cc5ccccc5)(O[C@@H]1[C@@H]3C=C(COC(=O)Cc1ccc(O)c(OC)c1)C[C@]1(O)C(=O)C(C)=C[C@@H]41)O2 [Resiniferatoxin] | 103-104 fold

— patent US20060148903A1, “Capsaicinoid gel formulation and uses thereof” (AlgoRx Pharmaceuticals, Inc., priority 2004, published 2006)
